Results on two compounds are retold here after ChEMBL document CHEMBL5365463, “Identification of a Self-Assembling Small-Molecule Cancer Vaccine Adjuvant with an Improved Toxicity Profile” (J Med Chem, 2023).

Data set [1] has as its system RAW264.7. The data set is described as follows: Induction of apoptosis in mouse RAW264.7 cells assessed as live cells at 4 uM by flow cytometry analysis (reference value: 67.2 %). Type of data set: functional. A general note: Flow cytometry measures light scatter and fluorescence of single cells or particles in a stream.
The subject of data set [2] is RAW264.7. The data set is described as follows: Induction of apoptosis in mouse RAW264.7 cells assessed as live cells at 8 uM by flow cytometry analysis (reference value: 67.2 %). Type of data set: functional.
Data set [3] relates to RAW264.7. The data set is described as follows: Induction of apoptosis in mouse RAW264.7 cells assessed as live cells at 10 uM by flow cytometry analysis (reference value: 67.2 %). It is filed as functional.
The test system of data set [4] is RAW264.7. The data set is described as follows: Induction of apoptosis in mouse RAW264.7 cells assessed as live cells at 12 uM by flow cytometry analysis (reference value: 67.2 %). It is filed as functional.
The test system of data set [5] is RAW264.7. The data set is described as follows: Induction of apoptosis in mouse RAW264.7 cells assessed as live cells at 16 uM by flow cytometry analysis (reference value: 67.2 %). It is filed as functional.
The subject of data set [6] is RAW264.7. As to the kind of experiment: Induction of apoptosis in mouse RAW264.7 cells assessed as apoptotic cells at 4 uM by flow cytometry analysis (reference value: 3.06 %). Type of data set: functional.
The subject of data set [7] is RAW264.7. As to the kind of experiment: Induction of apoptosis in mouse RAW264.7 cells assessed as apoptotic cells at 8 uM by flow cytometry analysis (reference value: 3.06 %). It is filed as functional.
Data set [8] concerns RAW264.7. The data set is described as follows: Induction of apoptosis in mouse RAW264.7 cells assessed as apoptotic cells at 10 uM by flow cytometry analysis (reference value: 3.06 %). Type of data set: functional.
Data set [9] relates to RAW264.7. The data set is described as follows: Induction of apoptosis in mouse RAW264.7 cells assessed as apoptotic cells at 12 uM by flow cytometry analysis (reference value: 3.06 %). It is filed as functional.
Data set [10] concerns RAW264.7. As to the kind of experiment: Induction of apoptosis in mouse RAW264.7 cells assessed as apoptotic cells at 16 uM by flow cytometry analysis (reference value: 3.06 %). It is filed as functional.
For data set [11], the system named is RAW264.7. The data set is described as follows: Induction of apoptosis in mouse RAW264.7 cells assessed as necrotic cells at 4 uM by flow cytometry analysis (reference value: 28.7 %). It is filed as functional.
The test system of data set [12] is RAW264.7. The data set is described as follows: Induction of apoptosis in mouse RAW264.7 cells assessed as necrotic cells at 8 uM by flow cytometry analysis (reference value: 28.7 %). Type of data set: functional.
For data set [13], the system named is RAW264.7. As to the kind of experiment: Induction of apoptosis in mouse RAW264.7 cells assessed as necrotic cells at 10 uM by flow cytometry analysis (reference value: 28.7 %). It is filed as functional.
Data set [14] concerns RAW264.7. As to the kind of experiment: Induction of apoptosis in mouse RAW264.7 cells assessed as necrotic cells at 12 uM by flow cytometry analysis (reference value: 28.7 %). It is filed as functional.
The test system of data set [15] is RAW264.7. As to the kind of experiment: Induction of apoptosis in mouse RAW264.7 cells assessed as necrotic cells at 16 uM by flow cytometry analysis (reference value: 28.7 %). Type of data set: functional.
Data set [16] is described as follows: Toxicity in BALB/c mouse assessed as effect on body weight loss at 1000 ug measured after 16 hrs in presence of hemagglutinin. Conditions: in vivo, dose 1000 µg.
The nature of data set [17]: Toxicity in BALB/c mouse assessed as reduction in leukocyte count measured after 16 hrs. The following applies: dose 100-1000 µg.
Data set [18] is described as follows: Toxicity in BALB/c mouse assessed as increase in Timp1 expression at 100 to 1000 ug measured after 16 hrs in presence of hemagglutinin. The following applies: in vivo, dose 100-1000 µg.
Data set [19] can be described thus: Toxicity in BALB/c mouse assessed as increase in Mx2 expression at 100 to 1000 ug measured after 16 hrs in presence of hemagglutinin. Conditions: in vivo, dose 100-1000 µg.
Data set [20] relates to BMDC. The data set is described as follows: Induction of immune response in TLR7 knockout mouse BMDC cells assessed as increase in IL-6 production at 10 to 100 uM incubated for 24 hrs by ELISA method. Conditions: dose 10-100 µM. Type of data set: functional, cell-based. In general terms: In an ELISA, binding on a coated surface is turned into a signal by an enzyme label.

In data set [21] the test system is BMDC. As to the kind of experiment: Induction of immune response in TLR7 knockout mouse BMDC cells assessed as increase in TNF-alpha production at 10 to 100 uM incubated for 24 hrs by ELISA method. It is filed as functional, cell-based. Conditions: dose 10-100 µM.
The test system of data set [22] is BMDC. The data set is described as follows: Induction of immune response in TLR7 knockout mouse BMDC cells assessed as increase in MIP-1alpha production at 10 to 100 uM incubated for 24 hrs by ELISA method. The following applies: dose 10-100 µM. Type of data set: functional, cell-based.
Data set [23] deals with BMDC. As to the kind of experiment: Induction of immune response in TLR7 knockout mouse BMDC cells assessed as increase in IFN-beta production at 10 to 100 uM incubated for 24 hrs by ELISA method. Conditions: dose 10-100 µM. It is filed as functional, cell-based.
The subject of data set [24] is BMDC. The data set is described as follows: Induction of immune response in TLR7 knockout mouse BMDC cells assessed as increase in CXCL10 production at 10 to 100 uM incubated for 24 hrs by ELISA method. It is filed as functional, cell-based. Conditions: dose 10-100 µM.
For the next data set, the system named is Mus musculus. As to the kind of experiment: Immuno-adjuvant activity in SV-immunized C57BL/6 mouse assessed as increase in HA-specific IgG1 titer level at 100 ug, sc administered immediately and on day 0, 14 and measured at day 21 by ELISA. It is filed as functional, organism-based. The following applies: dose 100.0 µg, time 21.0 day.
In data set [25] the test system is BMDC. As to the kind of experiment: Induction of IL-6 production in mouse BMDC cells at 100 uM. It is filed as functional, cell-based.

Active and inactive are the calls of the source. The rule behind the calls is not given here.

For the compound `C[C@H](CCC(=O)NCCCCCNC(=O)CC[C@@H](C)[C@H]1CC[C@H]2[C@@H]3CC[C@@H]4C[C@H](O)CC[C@]4(C)[C@H]3C[C@H](O)[C@]12C)[C@H]1CC[C@H]2[C@@H]3CC[C@@H]4C[C@H](O)CC[C@]4(C)[C@H]3C[C@H](O)[C@]12C`, the Activity was determined as 67.4% with RAW264.7 [1]; 66.9% with RAW264.7 [2]; 33.5% in the data set with RAW264.7 [3]; 27.9% in the data set with RAW264.7 [4]; 11.6% in the data set on RAW264.7 [5]; 2.23% in the data set with RAW264.7 [6]. The Activity with RAW264.7 [7] was 2.26%; in the data set with RAW264.7 [8], 0.6%; with RAW264.7 [9], 0.13%; with RAW264.7 [10], 0.034%; with RAW264.7 [11], 28.6%; with RAW264.7 [12], 29.4%. Also, the Activity in the data set on RAW264.7 [13] is listed as 63.8%; in the data set on RAW264.7 [14] it was 69.7%; in the data set on RAW264.7 [15], 85%; in [16] it was “Toxic”; in data set [17], “Dose-Dependent Effect”; in data set [18], “Toxic”. Moreover, the Activity entry in data set [19] is recorded as “Toxic”. Moreover, the outcome in the data set on BMDC [20], in the data set with BMDC [21], with BMDC [22], in the data set with BMDC [23] and in the data set on BMDC [24] was inactive. The result with Mus musculus was Active.
Take `C[C@H](CCC(=O)NCCCCCNC(=O)CC[C@@H](C)[C@H]1CC[C@H]2[C@@H]3[C@H](O)C[C@@H]4C[C@H](O)CC[C@]4(C)[C@H]3CC[C@]12C)[C@H]1CC[C@H]2[C@@H]3[C@H](O)C[C@H]4C[C@H](O)CC[C@]4(C)[C@H]3CC[C@]12C`: the outcome in the data set with BMDC [25] was Active.
